Measurements reported in patent publication US20260308186A1, “STAT DEGRADERS AND USES THEREOF” (Recludix Pharma, Inc., priority 2023, published 2026).
pIC50: −log10 of the molar value.

Columns and labels:
STAT3 = molecular target: T1, STAT3 (Homo sapiens, UniProt P40763); test: STAT3 Fluorescence Polarization (FP) Assay; assay type: binding; details: recombinant STAT3 25 nM; probe 5-FAM-GpYLPQTV-NH2 2 nM; 45 min, room temperature; read-out: STAT3 FP IC50
T1 construct: Recombinant STAT3 protein (STAT3(G127-1722))
Procedure: STAT3 Fluorescence Polarization (FP) Assay
An FP assay was developed to determine IC50 values for test substances. Recombinant STAT3 protein (STAT3(G127-1722)) at 25 nM was combined with a fluorescently labeled, phosphotyrosine peptide probe (5-FAM-GpYLPQTV-NH2) at 2 nM in FP buffer (10 mM HEPES pH 7.4, 50 mM NaCl, 1 mM EDTA, 0.05% Tween 20.2 mM DTT). 50 μL of STAT3-probe mixture was added to serial diluted compounds in black, 96-well plates (Greiner BioOne 655076) to a final concentration of 1% DMSO. Reaction components were mixed, and FP was measured after 45-minute incubation at room temperature using a Tecan Spark multimode plate reader. FP signal (mP) was plotted against the log concentration of the test substances and IC50 values were calculated by nonlinear regression analysis using GraphPad Prism software. For STAT3 FP assay. A=≤100 nM; B=>100-1000 nM; C=>1-10 μM; and D=>10 μM.

STAT6 = molecular target: T2, STAT6 (Homo sapiens, UniProt P42226); test: STAT6 Fluorescence Polarization (FP) Assay; assay type: binding; details: recombinant STAT6(W123-T658) 250 nM; probe 5-FAM-Ap[…]-NH2 2 nM; 45 min, room temperature; read-out: STAT6 FP IC50
T2 construct: Recombinant STAT6 protein (STAT6(W123-T658))
T2 sequence (P42226 123-658): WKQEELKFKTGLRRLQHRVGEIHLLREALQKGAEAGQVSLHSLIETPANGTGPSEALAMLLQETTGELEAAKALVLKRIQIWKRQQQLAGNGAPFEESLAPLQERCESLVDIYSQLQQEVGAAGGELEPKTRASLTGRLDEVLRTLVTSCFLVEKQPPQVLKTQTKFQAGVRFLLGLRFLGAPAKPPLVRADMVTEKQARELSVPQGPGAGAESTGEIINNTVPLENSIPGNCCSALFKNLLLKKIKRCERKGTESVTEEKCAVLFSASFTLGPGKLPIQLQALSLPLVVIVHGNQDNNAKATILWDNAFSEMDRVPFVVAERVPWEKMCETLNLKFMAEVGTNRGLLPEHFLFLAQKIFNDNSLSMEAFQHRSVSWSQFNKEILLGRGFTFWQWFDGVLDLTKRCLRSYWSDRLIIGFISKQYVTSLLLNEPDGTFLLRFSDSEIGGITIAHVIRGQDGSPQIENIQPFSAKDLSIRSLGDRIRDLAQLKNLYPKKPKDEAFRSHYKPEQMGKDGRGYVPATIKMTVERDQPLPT
Procedure: STAT6 Fluorescence Polarization (FP) Assay
An FP assay was developed to determine IC50 values for test substances. Recombinant STAT6 protein (STAT6(W123-T658)) at 250 nM was combined with a fluorescently labeled, phosphotyrosine peptide probe (5-FAM-Ap[…]-NH2) at 2 nM in FP buffer (10 mM HEPES pH 7.4, 50 mM NaCl, 1 mM EDTA, 0.05% Tween 20, 2 mM DTT), 50 μL of STAT6-probe mixture was added to serial diluted compounds in black, 96-well plates (Greiner BioOne 655076) to a final concentration of 1% DMSO. Reaction components were mixed, and FP was measured after 45-minute incubation at room temperature using a Tecan Spark multimode plate reader. FP signal (mP) was plotted against the log concentration of the test substances and IC50 values were calculated by nonlinear regression analysis using GraphPad Prism software. For STAT6 FP assay. A=≤300 nM; B=>300-3000 nM; C=>3-30 μM; and D=>30 μM.

pSTAT6 = molecular target: T3, pSTAT6 (Homo sapiens, UniProt P42226); test: MSD-pSTAT-PBMC Assay, pSTAT6 (IL-4 stimulated PBMC); assay type: cell-based; details: compound 3 hrs, then 1 ng/mL IL-4 for 10 min, pY641-STAT6, read-out: pSTAT6 IC50
T3 construct: pY641-STAT6 MSD read-out
T3 sequence (P42226 1-847): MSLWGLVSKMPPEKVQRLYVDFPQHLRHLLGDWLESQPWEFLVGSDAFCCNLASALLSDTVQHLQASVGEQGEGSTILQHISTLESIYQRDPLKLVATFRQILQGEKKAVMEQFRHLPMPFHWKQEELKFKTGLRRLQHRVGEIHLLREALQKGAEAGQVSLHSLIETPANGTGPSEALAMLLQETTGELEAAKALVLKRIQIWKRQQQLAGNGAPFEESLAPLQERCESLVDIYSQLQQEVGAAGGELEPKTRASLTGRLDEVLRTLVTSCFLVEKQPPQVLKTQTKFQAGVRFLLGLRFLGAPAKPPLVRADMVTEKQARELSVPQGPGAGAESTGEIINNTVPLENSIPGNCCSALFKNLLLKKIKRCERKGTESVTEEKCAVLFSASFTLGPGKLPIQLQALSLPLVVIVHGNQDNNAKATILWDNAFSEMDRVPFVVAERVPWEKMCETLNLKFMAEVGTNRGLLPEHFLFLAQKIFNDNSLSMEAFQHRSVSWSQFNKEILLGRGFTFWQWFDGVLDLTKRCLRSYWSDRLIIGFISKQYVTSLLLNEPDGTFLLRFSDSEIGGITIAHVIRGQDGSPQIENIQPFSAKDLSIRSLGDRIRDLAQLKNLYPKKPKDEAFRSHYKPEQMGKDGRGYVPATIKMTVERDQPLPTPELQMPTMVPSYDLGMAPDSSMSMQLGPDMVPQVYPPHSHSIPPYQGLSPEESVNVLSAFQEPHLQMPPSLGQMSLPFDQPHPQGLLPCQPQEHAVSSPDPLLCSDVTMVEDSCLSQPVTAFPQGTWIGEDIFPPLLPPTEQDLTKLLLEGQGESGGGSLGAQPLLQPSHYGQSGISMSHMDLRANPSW
Excerpt: Cryopreserved Peripheral Blood Mononuclear Cells (PBMC) are from AllCells. Recombinant Human IL-4 and IL-6 are from Peprotech. Mouse monoclonal anti-STAT3 antibody, rabbit monoclonal anti-pY705-STAT3 antibody, rabbit monoclonal Anti-pY641-STAT6 antibody, and lysis buffer are from Cell Signaling Technology (CST). Mouse monoclonal anti-STAT6 antibody is from BioLegend. Assay plates, blocker, and anti-rabbit secondary antibody are from Meso Scale Discovery (MSD).
Cryopreserved PBMCs were thawed out and allowed to recover overnight in IMDM+10% heat-inactivated FBS prior to plating 50,000 (STAT3) or 25,000 (STAT6) cells per well in 96-well U-bottom tissue culture plates. Cells were treated with compound for 3 hrs. then stimulated with 10 ng/mL IL-6 (STAT3) or 1 ng/mL IL-4 (STAT6) for 10 min. Cells were then spun down and washed with ice-cold PBS prior to lysing the cell pellet with 1× lysis buffer (CST) with 1×HALT protease and phosphatase inhibitor cocktail (Thermo). Lysates were transferred to and incubated overnight at 4° C. with shaking in QuickPlex 96-well high bind assay plates (MSD) pre-coated overnight with 30 μL per well of 0.6 μg/mL mouse monoclonal anti-STAT3 antibody (STAT3) or 2 μg/mL mouse monoclonal anti-STAT6 antibody (STAT6) in 1×PBS, and pre-blocked for 1 hour with 3% Blocker-A (MSD). Captured protein in the assay plates were then washed and probed with 25 μL per well of 0.25 μg/ml rabbit monoclonal anti-pY705-STAT3 antibody (STAT3) or 0.18 μg/ml rabbit monoclonal Anti-pY641-STAT6 antibody (STAT6) in 1% Blocker-A for 1 hour at room temperature with shaking, then washed and probed with 25 ul per well of 1 ug/ml Sulfo-TAG Labeled Goat Anti-Rabbit Antibody (MSD) in 1% Blocker-A for 1 hour at room temperature with shaking. Assay plates were then washed and 150 μL of 1× Read Buffer-T (MSD) was added to each well prior to reading on an SQ120 MSD Plate Reader. Assay signal from each sample was subtracted by the signal from unstimulated control wells and normalized to DMSO control wells. IC50 values were calculated using Graph Pad Prism Dose-Response Nonlinear Regression with variable slope. For both pSTAT3 and pSTAT6 A=≤100 nM; B=>100-1000 nM; C=>1000-3000 nM; and D=>3 μM.

T1 sequence (P40763 127-722 limits assumed): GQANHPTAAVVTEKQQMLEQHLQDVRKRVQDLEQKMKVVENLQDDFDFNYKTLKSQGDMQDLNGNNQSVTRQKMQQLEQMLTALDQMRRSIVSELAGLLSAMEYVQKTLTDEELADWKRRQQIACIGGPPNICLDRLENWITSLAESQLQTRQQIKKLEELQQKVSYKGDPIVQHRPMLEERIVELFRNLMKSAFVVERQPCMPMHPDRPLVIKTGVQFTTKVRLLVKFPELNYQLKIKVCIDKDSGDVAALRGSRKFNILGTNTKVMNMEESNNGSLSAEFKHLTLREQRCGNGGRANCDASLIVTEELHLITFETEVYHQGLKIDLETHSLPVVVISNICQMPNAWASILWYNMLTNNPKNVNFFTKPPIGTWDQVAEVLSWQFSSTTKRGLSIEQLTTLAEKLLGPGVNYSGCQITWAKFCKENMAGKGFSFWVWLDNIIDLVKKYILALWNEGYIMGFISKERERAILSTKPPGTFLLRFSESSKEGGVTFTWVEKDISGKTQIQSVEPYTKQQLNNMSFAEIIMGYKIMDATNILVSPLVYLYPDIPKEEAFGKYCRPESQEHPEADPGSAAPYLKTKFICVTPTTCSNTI

pIC50 (STAT3)	pIC50 (STAT6)	pIC50 (pSTAT6)	Compound
5.00 to 6.00	> 6.52	< 5.52	Cc1ccc2onc(C(=O)N3CC[C@H]4CC[C@@H](C(=O)N(C)CCCC(=O)N[C@H](C(=O)N5C[C@H](O)C[C@H]5C(=O)N[C@@H](C)c5ccc(-c6scnc6C)cc5)C(C)(C)C)N4C(=O)[C@@H](NC(=O)c4ccc5ccc(C(F)(F)P(=O)(O)O)cc5c4)C3)c2c1 [Compound 29, (difluoro(7-(((5S,8S,10aR)-8-((4-(((S)-1-((2S,4R)-4-hydroxy-2-(((S)-1-(4-(4-methylthiazol-5-yl)phenyl)ethyl)carbamoyl)pyrrolidin-1-yl)-3,3-dimethyl-1-oxobutan-2-yl)amino)-4-oxobutyl)(methyl)carbamoyl)-3-(5-methylbenzo[d]isoxazole-3-carbonyl)-6-oxodecahydropyrrolo[1,2-a][1,5]diazocin-5-yl)carbamoyl)naphthalen-2-yl)methyl)phosphonic acid]
5.00 to 6.00	> 6.52	< 5.52	Cc1ccc2onc(C(=O)N3CC[C@H]4CC[C@@H](C(=O)N(C)CCCCOc5ccc(C6CCC(=O)NC6=O)cc5)N4C(=O)[C@@H](NC(=O)c4ccc5ccc(C(F)(F)P(=O)(O)O)cc5c4)C3)c2c1 (stereo partly drawn) [Compound 30, ((7-(((5S,8S,10aR)-8-((4-(4-(2,6-dioxopiperidin-3-yl)phenoxy)butyl)(methyl)carbamoyl)-3-(5-methylbenzo[d]isoxazole-3-carbonyl)-6-oxodecahydropyrrolo[1,2-a][1,5]diazocin-5-yl)carbamoyl)naphthalen-2-yl)difluoromethyl)phosphonic acid]
5.00 to 6.00	5.52 to 6.52	< 5.52	Cc1ccc2onc(C(=O)N3CC[C@H]4CC[C@@H](C(=O)NCCOc5cc(C(C(=O)N6C[C@H](O)C[C@H]6C(=O)N[C@H](C)c6ccc(-c7scnc7C)cc6)C(C)C)on5)N4C(=O)[C@@H](NC(=O)c4ccc5ccc(C(F)(F)P(=O)(O)O)cc5c4)C3)c2c1 (stereo partly drawn) [Compound 32, (difluoro(7-(((5S,8S,10aR)-8-((2-((5-(1-((2S,4R)-4-hydroxy-2-(((R)-1-(4-(4-methylthiazol-5-yl)phenyl)ethyl)carbamoyl)pyrrolidin-1-yl)-3-methyl-1-oxobutan-2-yl)isoxazol-3-yl)oxy)ethyl)carbamoyl)-3-(5-methylbenzo[d]isoxazole-3-carbonyl)-6-oxodecahydropyrrolo[1,2-a][1,5]diazocin-5-yl)carbamoyl)naphthalen-2-yl)methyl)phosphonic acid]
5.00 to 6.00	> 6.52	< 5.52	Cc1ccc2onc(C(=O)N3CC[C@H]4CC[C@@H](C(=O)N5CCN(c6cc(C(C(=O)N7C[C@H](O)C[C@H]7C(=O)N[C@H](C)c7ccc(-c8scnc8C)cc7)C(C)C)on6)CC5)N4C(=O)[C@@H](NC(=O)c4ccc5ccc(C(F)(F)P(=O)(O)O)cc5c4)C3)c2c1 (stereo partly drawn) [Compound 33, (difluoro(7-(((5S,8S,10aR)-8-(4-(5-(1-((2S,4R)-4-hydroxy-2-(((R)-1-(4-(4-methylthiazol-5-yl)phenyl)ethyl)carbamoyl)pyrrolidin-1-yl)-3-methyl-1-oxobutan-2-yl)isoxazol-3-yl)piperazine-1-carbonyl)-3-(5-methylbenzo[d]isoxazole-3-carbonyl)-6-oxodecahydropyrrolo[1,2-a][1,5]diazocin-5-yl)carbamoyl)naphthalen-2-yl)methyl)phosphonic acid]
5.00 to 6.00	> 6.52	< 5.52	Cc1ccc2onc(C(=O)N3CC[C@H]4CC[C@@H](C(=O)N5CCN(c6ccc7c(c6)[nH]c(=O)n7C6CCC(=O)NC6=O)CC5)N4C(=O)[C@@H](NC(=O)c4ccc5ccc(C(F)(F)P(=O)(O)O)cc5c4)C3)c2c1 (stereo partly drawn) [Compound 34, ((7-(((5S,8S,10aR)-8-(4-(1-(2,6-dioxopiperidin-3-yl)-2-oxo-2,3-dihydro-1H-benzo[d]imidazol-5-yl)piperazine-1-carbonyl)-3-(5-methylbenzo[d]isoxazole-3-carbonyl)-6-oxodecahydropyrrolo[1,2-a][1,5]diazocin-5-yl)carbamoyl)naphthalen-2-yl)difluoromethyl)phosphonic acid]
< 5.00	> 6.52	< 5.52	Cc1ccc2onc(C(=O)N3CC[C@H]4CC[C@@H](C(=O)Nc5cccc6c5CN(C5CCC(=O)NC5=O)C6=O)N4C(=O)[C@@H](NC(=O)c4ccc5ccc(C(F)(F)P(=O)(O)O)cc5c4)C3)c2c1 (stereo partly drawn) [Compound 35, ((7-(((5S,8S,10aR)-8-((2-(2,6-dioxopiperidin-3-yl)-1-oxoisoindolin-4-yl)carbamoyl)-3-(5-methylbenzo[d]isoxazole-3-carbonyl)-6-oxodecahydropyrrolo[1,2-a][1,5]diazocin-5-yl)carbamoyl)naphthalen-2-yl)difluoromethyl)phosphonic acid]
